Series [1] has as its system Caski (HPV16+) cells. The series can be described thus: Cell proliferation/viability assay, Caski cells. The format is cell-based. The note with it: Homo sapiens, Ca-Ski, 96 h, 4 days. As to the method: (§1) Caski (catalog number CRL-1550), SiHa (catalog number HTB-35), C33A (catalog number HTB-31), Saos-2 (ATCC HTB-85), and Hela (catalog number CCL-2) cells were obtained from the American Type Culture Collection (ATCC). The human cervical carcinoma cell lines Caski. SiHa, Hela and C33A, and the human osteosarcoma cell line Saos-2, and the human keratinocyte cell line HaCaT were cultured in Dulbecco's Modified Eagle Medium (DMEM, Invitrogen catalog number 11965-092) supplemented with 10% fetal bovine serum. The colorectal carcinoma cell line HCT-116 was cultured in Roswell Park Memorial Institute-1640 Medium (Invitrogen catalog number 11875-093) supplemented with 10% FBS. All cells were incubated at 37° C. in a humidified atmosphere with 5% CO2 in air. To establish the SCHPV-18 cell line, one million primary neonatal human foreskin keratinocytes (Invitrogen, catalog no. C-001-5C), cultured in KBM Gold-keratinocvte cell basal medium (Lonza, catalog no. 192060), were electroporated with 5 μg HPV-18 plasmid DNA (ATCC catalog no. 45152D) using the Amaxa Nucleofector II on setting T-007. Cells were co-transfected with 2 μg plasmid pZSGreen1-N1 (Clontech catalog no. 632448) encoding G418 resistance, and cells were selected for four days in 100 μg/ml G418, after which selection was removed. Cells were maintained in culture six months prior to compound testing. Integration of the HPV 18 genome was confirmed by Southern blot. Control cells transfected in parallel with pZSGreen1-N1 alone became senescent four days after selection and the culture could not be expanded. SCHPV-18 cells were maintained in E medium (Fehrmann F, Laimins L A. Human papillomavirus type 31 life cycle: methods for study using tissue culture models. Methods Mol Biol 2005; 292:317-330).
(§2) For proliferation assays, cells were plated in white polystyrene 96-well plates (Costar catalog number 3917) for CellTiter Glo viability assays or 96-well special optics plates (Costar cat #3614) for CellTiter Blue viability assays. Cells were plated in the appropriate growth medium without antibiotics. Two hours after cell plating, a 200× compound stock diluted in DMSO was added to a final concentration of 0.5%. Plates were incubated at 37° C., for 4 days and then cell viability was assessed using either CellTiter Blue (Promega catalog number G8081) or CellTiter Glo (Promega catalog number G7572) according to the manufacturer's instructions. For the CellTiter Blue viability assay, data was collected using the SpectraMax Gemini EM (Molecular Devices) with an excitation wavelength of 530 nm and emission wavelength of 590 nm. For the CellTiter Glo viability assay, data was collected using the Envision Mulitlabel Reader (Perkin Elmer catalog number 2104-0010). To calculate IC50 and EC50 values, percent inhibition curves were fit using a four-parameter logistic formula [y=A+[…]], where A and B denote minimal and maximal % inhibition, respectively, C is the IC50 value, D is the Hill slope, and x represents compound concentration.
(§3) Table C, below, sets out the results obtained employing various compounds of the invention tested for their effects on proliferation of such cells. Caski or SiHa cells, transformed by HPV 16, Hela cells, transformed by HPV 18, or HPV-negative control cell lines (Saos-2 or C33a) were treated with various compounds. […] Unlike the HPV-negative Saos-2 or C33a cell lines, the HPV-transformed cell lines rely on the presence of HPV for their continued proliferation. Therefore, a comparison of IC50 values from HPV-transformed cell lines with IC50 values obtained from HPV-negative cell lines can be used to test for compound selectivity.

Series [2] relates to C33A (HPV−) cells. Briefly: Cell proliferation/viability assay, C33A cells. The format is cell-based. The note with it: Homo sapiens, C-33-A, 96 h; C33A, HPV-negative, 4 days; read-out: C33A (HPV−) Proliferation IC50. Here is the method: as §1, §2, §3
The subject of series [3] is Saos-2 (HPV−) cells. Briefly: Cell proliferation/viability assay, Saos-2 cells. Type of series: cell-based. The note with it: Homo sapiens, 96 h; Saos-2, HPV-negative, 4 days; read-out: Saos-2 (HPV−) Proliferation IC50. As to the method:
as §1, §2, §3

Series [4] concerns SiHa (HPV16+) cells. Briefly: Cell proliferation/viability assay, SiHa cells. The note with it: Homo sapiens, 96 h, 4 days. The format is cell-based. As to the method: as §1, §2, §3
The subject of series [5] is HeLa (HPV18+) cells. The series can be described thus: Cell proliferation/viability assay, HeLa cells. As to conditions: Homo sapiens, 96 h, 4 days. Type of series: cell-based. As to the method: as §1, §2, §3
For series [6], the system named is Caspase-3/-7 activity. Briefly: Apoptosis assay (Caspase-Glo 3/7) in HPV-transformed and HPV-negative cell lines. The format is cell-based, human. As to the method: Apoptosis is a cellular process in which a cascade of events, controlled by proteolytic cleavage events, results in chromatin condensation, blebbing of the cell membrane, fragmentation of cellular DNA, and cell death. Caspases 3 and 7 are enzymes which control initiation of the later stages of apoptosis. Caspase-3/-7 activity can therefore be used as a measure of induction of apoptosis in response to compound treatment. For caspase-3/7 activity assays, cells were plated in 96-well plates (Costar catalog no. 3917) in DMEM with 10% FBS two hours before compound treatment. Cells were treated with compounds in a final concentration of 0.5% DMSO, then the Caspase-Glo 3/7 Assay (Promega catalog no. G8090) was performed according to manufacturer's instructions. […] Luminescence was measured using the EnVision Multilabel Reader (Perkin Elmer catalog no. 2104-0010) with aperture diameter 6 mm, height 4.2 mm, and measurement time of 0.1 second per well.
Example 15 was tested in an apoptosis assay using three HPV-transformed cell lines (Caski, SiHa, and SCHPV-18) and four HPV-negative cell lines (HCT-116, HaCat, C33a, and Saos-2). The cell lines were treated with a range of concentrations of the compound and induction of Caspase-3/-7 activity was measured relative to vehicle (DMSO)-treated controls.

For series [7], the target named is T1, protease-activated receptor type 4 (PAR4) (Homo sapiens, UniProt Q96RI0).
T1 sequence (Q96RI0 18-385): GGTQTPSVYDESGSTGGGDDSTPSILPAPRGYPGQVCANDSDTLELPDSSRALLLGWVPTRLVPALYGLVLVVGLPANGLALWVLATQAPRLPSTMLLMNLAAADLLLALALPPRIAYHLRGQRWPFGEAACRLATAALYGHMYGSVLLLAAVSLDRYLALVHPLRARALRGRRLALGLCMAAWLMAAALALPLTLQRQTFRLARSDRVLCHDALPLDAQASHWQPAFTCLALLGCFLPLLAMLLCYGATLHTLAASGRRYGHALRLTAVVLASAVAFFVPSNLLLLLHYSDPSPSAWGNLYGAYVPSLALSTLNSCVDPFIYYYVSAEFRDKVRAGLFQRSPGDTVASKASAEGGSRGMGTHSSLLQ
The note with it: Lee et al., J. Med. Chem. 2001; cited from earlier work.

For series [8] the following is noted: ACS patients, TRACER phase III trial; cited from earlier work.

The structures appear in SMILES notation. A value given as a limit tells only on which side of the number the result lay.

With `COc1ccc(-c2cc(C(F)(F)F)cc3nc(OC(F)F)cnc23)cc1Br` [Example 15, 5-(3-bromo-4-methoxyphenyl)-2-(difluoromethoxy)-7-(trifluoromethyl)quinoxaline], the IC50 in series [1] was 16.5 µM; in series [2], over 99.5 µM; in series [3], over 99.5 µM; in series [4], 12.9 µM; in series [5] it was 18.2 µM. The “increase in Caspase-3/-7 activity” value in series [6] (HPV-positive cell lines (Caski, SiHa, SCHPV-18), relative to vehicle (DMSO)-treated controls) is listed as “greater than 10 fold”. Moreover, the induction of apoptosis result in series [6] (HPV-positive versus HPV-negative cell lines (HCT-116, HaCat, C33a, Saos-2)) is recorded as “selectively induced apoptosis in HPV-positive cell lines”.
For `CCOC(=O)c1ccc(-c2nn(Cc3ccccc3)c3ccccc23)cc1` [YD-3], the “inhibition of PAR4-dependent platelet activation” value in series [7] was “selective and potent inhibitor”.
Take `CCOC(=O)N[C@@H]1CC[C@@H]2[C@@H](C1)C[C@H]1C(=O)O[C@H](C)[C@H]1[C@H]2/C=C/c1ccc(-c2cccc(F)c2)cn1` [vorapaxar]: in series [8], the cardiovascular events result is “did not significantly reduce cardiovascular events” and the “risk of major bleeding” value was “significantly increased the risk of major bleeding”.

The values above are taken from patent US10517870B2, “Aryl substituted bicycle heteroaryl compounds” (Bristol-Myers Squibb Company, priority 2015, dated 2019).
